Laboratory results: publication PMC10551445, “Piperlongumine is a ligand for the orphan nuclear receptor 4A1 (NR4A1)” (Frontiers in Pharmacology, 2023)

Target: orphan nuclear receptor 4A1 (NR4A1) (Homo sapiens, UniProt P22736)
Assay: ITC with the NR4A1 LBD; also Trp fluorescence quenching (KD […]) and GAL4-NR4A1 reporter assay
Assay type: binding

Sequence of orphan nuclear receptor 4A1 (NR4A1) (P22736 360-598 limits assumed): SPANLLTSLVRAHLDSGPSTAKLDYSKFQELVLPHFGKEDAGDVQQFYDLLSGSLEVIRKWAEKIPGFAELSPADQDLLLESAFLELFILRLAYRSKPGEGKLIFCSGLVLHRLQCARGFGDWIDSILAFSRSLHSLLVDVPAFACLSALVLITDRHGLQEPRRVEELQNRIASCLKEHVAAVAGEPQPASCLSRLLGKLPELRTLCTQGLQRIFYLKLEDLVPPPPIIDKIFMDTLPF

COc1cc(/C=C/C(=O)N2CCC=CC2=O)cc(OC)c1OC [piperlongumine]
Kd: 4.97 µM
